Assay results taken from patent publication US6355648B1, “Thio-oxindole derivatives” (American Home Products Corporation, priority 1999, dated 2002).
Where “and” joins values, the source holds several entries; their conditions need not be identical. Equal values may be shown once.

Columns and labels:
[1] = system: rat uterine decidualization; assay: Rat decidualization assay; format: in vivo; details: for EC50: half-maximal increase in decidual response (uterine wet weight), ovariectomized rats, s.c., individual studies
Description: 1. Rat Decidualization Assay:
The animals are treated once daily for seven days.
Uteri are removed and trimmed of fat. Decidualized (D-hom) and control (C-horn) uterine horns are weighed separately.
Body weight: Mean total animal body weight (default-kg)
Decidual response: [(D-C)/C]×100%

[2] = biological target: T1, A-form of the human progesterone receptor (Homo sapiens, UniProt P06401); assay: hPR binding assay (competitive radioligand binding)
T1 sequence (P06401 1-769 isoform P06401-2): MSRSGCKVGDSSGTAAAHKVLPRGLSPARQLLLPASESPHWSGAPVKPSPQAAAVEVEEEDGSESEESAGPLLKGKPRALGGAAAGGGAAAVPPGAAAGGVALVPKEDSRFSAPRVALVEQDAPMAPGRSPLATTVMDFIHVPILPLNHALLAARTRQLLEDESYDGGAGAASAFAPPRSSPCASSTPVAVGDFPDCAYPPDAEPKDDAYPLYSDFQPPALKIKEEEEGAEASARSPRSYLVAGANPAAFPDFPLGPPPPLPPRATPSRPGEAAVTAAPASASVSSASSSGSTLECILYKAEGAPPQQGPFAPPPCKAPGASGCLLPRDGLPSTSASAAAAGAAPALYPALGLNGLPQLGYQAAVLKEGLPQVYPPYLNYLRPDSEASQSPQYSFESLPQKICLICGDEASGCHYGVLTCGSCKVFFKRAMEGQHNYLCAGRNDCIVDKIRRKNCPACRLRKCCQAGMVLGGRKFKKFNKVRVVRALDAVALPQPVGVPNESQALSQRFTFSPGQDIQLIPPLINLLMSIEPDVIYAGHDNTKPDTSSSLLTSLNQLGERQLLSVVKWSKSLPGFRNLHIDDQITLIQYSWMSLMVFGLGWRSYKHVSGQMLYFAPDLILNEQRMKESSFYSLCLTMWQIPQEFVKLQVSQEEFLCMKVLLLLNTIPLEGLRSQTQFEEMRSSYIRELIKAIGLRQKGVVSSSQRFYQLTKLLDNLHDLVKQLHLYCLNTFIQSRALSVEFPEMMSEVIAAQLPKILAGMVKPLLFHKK

human PR = biological target: T2, human PR (Homo sapiens, UniProt P06401); assay: PRE-luciferase assay in CV-1 cells; format: cell-based; details: PRE-luciferase agonist mode in CV-1 cells
T2 construct: expressed in transfected cells; host or cells: CV-1 cells, electroporated with pLEM-hPR-B plasmid
T2 sequence (P06401 1-933): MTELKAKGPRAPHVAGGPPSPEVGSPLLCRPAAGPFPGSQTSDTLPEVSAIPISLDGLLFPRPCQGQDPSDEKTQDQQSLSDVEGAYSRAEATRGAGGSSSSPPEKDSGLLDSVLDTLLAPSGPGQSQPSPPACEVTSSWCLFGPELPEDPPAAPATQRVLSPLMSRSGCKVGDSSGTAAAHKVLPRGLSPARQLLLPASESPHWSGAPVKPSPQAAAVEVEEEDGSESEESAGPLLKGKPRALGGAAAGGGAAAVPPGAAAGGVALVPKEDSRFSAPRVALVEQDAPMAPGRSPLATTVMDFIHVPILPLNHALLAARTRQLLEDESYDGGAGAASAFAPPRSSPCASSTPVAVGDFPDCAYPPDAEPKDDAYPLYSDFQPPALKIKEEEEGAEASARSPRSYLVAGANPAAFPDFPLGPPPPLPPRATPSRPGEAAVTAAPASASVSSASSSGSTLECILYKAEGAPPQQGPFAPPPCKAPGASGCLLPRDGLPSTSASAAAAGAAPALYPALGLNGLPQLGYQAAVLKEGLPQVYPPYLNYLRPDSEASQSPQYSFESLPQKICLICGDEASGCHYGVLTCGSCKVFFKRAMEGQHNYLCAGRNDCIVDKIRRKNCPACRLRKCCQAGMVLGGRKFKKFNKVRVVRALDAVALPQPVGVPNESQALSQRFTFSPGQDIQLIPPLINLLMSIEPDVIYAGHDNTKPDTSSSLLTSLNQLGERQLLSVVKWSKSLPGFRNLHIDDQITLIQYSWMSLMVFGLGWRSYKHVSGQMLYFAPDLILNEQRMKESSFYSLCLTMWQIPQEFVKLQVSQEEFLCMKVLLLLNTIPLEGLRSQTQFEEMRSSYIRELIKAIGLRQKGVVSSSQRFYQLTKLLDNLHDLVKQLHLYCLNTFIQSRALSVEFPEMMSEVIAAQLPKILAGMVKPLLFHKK
Description: 2. PRE-luciferase Assay in CV-1 Cells
The object of this assay is to determine a compound's progestational or antiprogestational potency based on its effect on PRE-luciferase reporter activity in CV-1 cells co-transfected with human PR and PRE-luciferase plasmids. The materials methods used in the assay are as follows.
a. Growth Medium: DMEM (BioWhittaker) containing 10% (v/v) fetal bovine serum (heat inactivated), 0.1 mM MEM non-essential amino acids, 100 U/ml penicillin, […] streptomycin, and 2 mM GlutaMax (GIBCO, BRL). Experimental medium: DMEM (BioWhittaker), phenol red-free, containing 10% (v/v) charcoal-stripped fetal bovine serum (heat-inactivated), 0.1 mM MEM non-essential amino acids, 100 U/ml penicillin, […] streptomycin, and 2 mM GlutaMax (GIBCO, BRL).
b. Cell Culture, Transfection, Treatment, and Luciferase Assay
Stock CV-1 cells are maintained in growth medium. Co-transfection is done using 1.2×10^7 cells, […] pLEM plasmid with hpR-B inserted at Sph1 and BamH1 sites, […] pGL3 plasmid with two PREs upstream of the luciferase sequence, and […] sonicated calf thymus DNA as carrier DNA in […]. Electroporation is carried out at 260 V and […] in a Biorad Gene Pulser II. After electroporation, cells are resuspended in growth medium and plated in 96-well plate at 40,000 cells/well in 200 μl. Following overnight incubation, the medium is changed to experimental medium. Cells are then treated with reference or test compounds in experimental medium. […] Twenty-four hr. after treatment, the medium is discarded, cells are washed three times with D-PBS (GIBCO, BRL). Fifty μl of cell lysis buffer (Promega, Madison, Wis.) is added to each well and the plates are shaken for 15 min in a Titer Plate Shaker (Lab Line Instrument, Inc.). Luciferase activity is measured using luciferase reagents from Promega.
Each treatment consists of at least 4 replicates. Log transformed data are used for analysis of variance and nonlinear dose response curve fitting for both agonist and antagonist modes. Huber weighting is used to downweight the effects of outliers. EC50 or IC50 values are calculated from the retransformed values.

ovulation = assay: Rat ovulation inhibition model; format: in vivo
T47D cells = assay: T47D cell proliferation assay (BrdU incorporation); format: cell-based; details: half-maximal increase in BrdU incorporation in T47D cells; individual studies
Description: 3. T47D Cell Proliferation Assay
The objective of this assay is the determination of progestational and antiprogestational potency by using a cell proliferation assay in T47D cells. A compound's effect on DNA synthesis in T47D cells is measured.
DMEM:F12 (1:1) (GIBCO, BRL) supplemented with 10% (v/v) fetal bovine serum (not heat-inactivated), 100 U/ml penicillin, […], and 2 mM GlutaMax (GIBCO, BRL).
Minimum Essential Medium (MEM) (#51200-038GIBCO, BRL) phenol red-free supplemented with 0.5% charcoal stripped fetal bovine serum, 100 U/ml penicillin, 200 mg/ml streptomycin, and 2 mM GlutaMax (GIBCO, BRL).
Stock T47 D cells are maintained in growth medium For BrdU incorporation assay, cells are plated in 96-well plates (Falcon, Becton Dickinson Labware) at 10,000 cells/well in growth medium. […]
At the end of BrdU labeling, the medium is removed and BrdU incorporation is measured using a cell proliferation ELISA kit (#RPN 250, Amersham Life Science) according to manufacturer's instructions. […] Then 25 μl of 1 M sulfuric acid is added to each well to stop color reaction and optical density is read in a plate reader at 450 nm within 5 min.
Square root-transformed data are used for analysis of variance and nonlinear dose response curve fitting for both agonist and antagonist modes. […] EC50 or IC50 values are calculated from the retransformed values. […]

| SMILES | EC50 (human PR) [nM] | melting point [°C] | EC50 [1] | also measured |
| --- | --- | --- | --- | --- |
| C#C[C@]1(O)CC[C@H]2[C@@H]3CCC4=CC(=O)CC[C@@H]4[C@H]3C(=C)C[C@@]21CC [3-Ketodesogestrel] |  |  | 0.10 mg/kg, s.c. and 0.06 mg/kg, s.c. and 0.11 mg/kg, s.c. |  |
| CC1(Cc2ccccc2)C(=S)Nc2ccc(-c3cccc(Cl)c3)cc21 (stereo not shown) [Example 17, 3-Benzyl-5-(3-chlorophenyl)-3-methyl-1,3-dihydro-2H-indole-2-thione] |  | 168 to 170 |  |  |
| COc1cccc(-c2ccc3c(c2)C(C)(C)C(=S)N3)c1 [Example 19, 5-(3-Methoxyphenyl)-3,3-dimethyl-1,3-dihydro-2H-indole2-thione] |  | 149 to 150 |  |  |
| C#C[C@]1(O)CC[C@H]2[C@@H]3CCC4=CC(=O)CC[C@@H]4[C@H]3CC[C@@]21CC [Levonorgestrel] |  |  | 0.08 mg/kg, s.c. and 0.12 mg/kg, s.c. and 0.09 mg/kg, s.c. |  |
| CC(=O)O[C@]1(C(C)=O)CC[C@H]2[C@@H]3C[C@H](C)C4=CC(=O)CC[C@]4(C)[C@H]3CC[C@@]21C [MPA, medroxyprogesterone acetate] |  |  | 0.42 mg/kg, s.c. and 0.39 mg/kg, s.c. | EC50 (T47D cells): 0.017 nM and 0.019 nM |
| CC(=O)[C@H]1CC[C@H]2[C@@H]3CCC4=CC(=O)CC[C@]4(C)[C@H]3CC[C@]12C [Progesterone] |  |  | 5.50 mg/kg, s.c. and 6.21 mg/kg, s.c. |  |
| CC#C[C@]1(O)CC[C@H]2[C@@H]3CCC4=CC(=O)CCC4=C3[C@@H](c3ccc(N(C)C)cc3)C[C@@]21C [RU486] |  |  |  | IC50 ([1]; half-maximal decrease in EC50 progesterone induced decidual response, rats, p.o.): 0.21 mg/kg, p.o. and 0.14 mg/kg, p.o. |
| C[C@H](O)C(=O)[C@@]1(C)CC[C@H]2[C@@H]3CCC4=CC(=O)CCC4=C3CC[C@@]21C [Trimegestone] |  |  |  | EC50 (T47D cells): 0.017 nM and 0.014 nM and 0.019 nM |

Second part, led by results:

| EC50 (human PR) [nM] | melting point [°C] | SMILES | EC50 [1] | also measured |
| --- | --- | --- | --- | --- |
| 0.8 | 223 to 227 | S=C1Nc2ccc(-c3cccc(Cl)c3)cc2C12CCCCC2 [Example 1, 5′-(3-Chlorophenyl)spiro[cyclohexane-1,3′-[3H]indole]-2′(1′H)-thione] |  | Ki [2]: 0.2 nM |
| 0.2 | 230 to 232 | N#Cc1cc(-c2ccc3c(c2)C2(CCCCC2)C(=S)N3)cs1 [Example 3, 4-(1′, 2′-Dihydro-2′-thioxospiro[cyclohexane-1,3′-[3H]indol]-5′-yl)-2-thiophenecarbonitrile] |  | Ki [2]: 0.1 nM |
| 0.1 | 236 to 250 | N#Cc1cc(F)cc(-c2ccc3c(c2)C2(CCCCC2)C(=S)N3)c1 [Example 4, 3-(1,2-Dihydro-2-thioxospiro[cyclohexane-1,3-[3H]indol]-5-yl)-5-fluorobenzonitrile] |  | Ki [2]: 0.06 nM; Ovulation inhibition IC100 (ovulation): 0.1 mg/kg |
| 0.3 | 244 to 249 | Cc1cc(C(N)=S)sc1-c1ccc2c(c1)C1(CCCCC1)C(=S)N2 [Example 5, 4-Methyl-5-(1,2-dihydro-2-thioxospiro[cyclohexane-1,3-[3H]-indol]-5-yl)-2-thiophene Thioamide] |  |  |
|  | 158 to 160 | CC1(C)C(=S)Nc2ccc(-c3cccc(Cl)c3)cc21 [Example 16, 5-(3-Chlorophenyl)-3,3-dimethyl-1,3-dihydro-2H-indole-2-thione] |  |  |
